Test results: paper PMC7355546, “Lignans, Amides, and Saponins from Haplophyllum tuberculatum and Their Antiprotozoal Activity” (Molecules, 2020)
“And” between values parts separate entries of the source, which are not always exact repeats. Identical values can stand only once. Like-named read-outs stand apart in the source and are kept apart here.

Legend:
P. falciparum (NF54) = assay: Activity against Plasmodium falciparum erythrocytic stages (3H-hypoxanthine incorporation); type: cell-based; conditions: for P. falciparum SI (selectivity index): IC50 in L6 cells divided by IC50 in P. falciparum
[1] = tested on: T. b. rhodesiense (STIB 900) bloodstream forms; assay: Activity against Trypanosoma brucei rhodesiense bloodstream forms (resazurin); type: cell-based; conditions: for T. b. rhodesiense SI (selectivity index): IC50 in L6 cells divided by IC50 in T. b. rhodesiense; for IC50: read-out: T. b. rhodesiense IC50; for activity against T. b. rhodesiense (in words): STIB 900
Description: The stock was originally isolated from a patient and adapted to axenic culture conditions after several mouse passages and cloned. Minimum Essential Medium (50 µL) supplemented with 25 mM HEPES, 1 g/L additional glucose, 1% MEM non-essential amino acids (100×), 0.2 mM 2-mercaptoethanol, 1mM Na-pyruvate and 15% heat inactivated horse serum was added to each well of a 96-well microtiter plate. […] Then 4 × 10^3 bloodstream forms of T. b. rhodesiense STIB 900 in 50 µL were added to each well and the plate incubated at 37 °C under a 5% CO2 atmosphere for 70 h. […] Melarsoprol (Arsobal Sanofi-Aventis, received from WHO) was used as control.

[2] = In vitro cytotoxicity with L-6 cells (resazurin); type: cell-based; conditions: unit inferred, the other IC50 columns are µM, read-out: L6 Cells (cytotoxicity IC50)
Description: Assays were performed in 96-well microtiter plates, each well containing 100 μL of RPMI 1640 medium supplemented with 1% L-glutamine (200 mM) and 10% fetal bovine serum, and 4000 L-6 cells (a primary cell line derived from rat skeletal myoblasts). […] 10 μL of resazurin was then added to each well and the plates incubated for another 2 h. […] Podophyllotoxin (Sigma P4405) was used as control.

[3] = tested on: L. donovani intracellular amastigotes in mouse peritoneal macrophages; assay: Activity against Leishmania donovani intramacrophage amastigotes; type: cell-based; conditions: tested up to 30 μM
Description: Mouse peritoneal macrophages (4 × 10^4 in 100 µL RPMI 1640 medium with 10% heat-inactivated FBS) were seeded into wells of a 96-well plate. After 24 h, 100 µL of 2 × 10^5 amastigote Leishmania donovani were added. The amastigotes were taken from an axenic amastigote culture grown at pH 5.4. The medium containing free amastigote forms was removed after 24 h and replaced with fresh medium. The washing step was repeated and afterwards the serial drug dilution was prepared with at least 6 dilution steps. Compound was dissolved in DMSO at 10 mg/mL and further diluted in medium. After incubation for 96 h at 37 °C under a 5% CO2 atmosphere, the medium was removed and cells were fixed by adding 50 µL 4% formaldehyde solution followed by a staining with a 5 µM DRAQ5 solution. Plates were imaged in ImageXpress XLS (MD) microscope using a 20× air objective (635 nm excitation: 690/50 emission). Nine images were collected per well. Automated image analysis was performed with a script developed on Meta Xpress Software (MD). Three outputs were provided for each well: (i) number of host cell nuclei; (ii) numbers of infected and non-infected host cells; (iii) number of parasite nuclei per infected host cell. The IC50 values were calculated based on the infection rate and the numbers of intracellular amastigotes. Miltefosine was used as control.

[4] = tested on: L. donovani promastigote form; set-up: method as in PMID 18688887; conditions: cited from earlier work
P. falciparum = conditions: cited from earlier work
trypanosomes = conditions: cited from earlier work
[5] = Plasmodium falciparum, NF54, NF54, mean of at least two independent replicates ± absolute deviation, read-out: P. falciparum IC50
[6] = Trypanosoma brucei, STIB 900 bloodstream forms, mean of at least two independent replicates ± absolute deviation
[7] = NF54, mean of at least two independent replicates ± absolute deviation, read-out: P. falciparum IC50
[8] = L-6 cells (rat skeletal myoblasts)
[9] = STIB 900 bloodstream forms, mean of at least two independent replicates ± absolute deviation

SMILES	P. falciparum SI (selectivity index) (P. falciparum (NF54))	IC50 (P. falciparum (NF54); [5]) [µM]	T. b. rhodesiense SI (selectivity index) [1]	IC50 [1, 6] [µM]	IC50 at 72 h [2, 8] [µM]	also measured
COc1cc([C@H]2O[C@@H](c3ccc(O)c(OC)c3)[C@@H](C)[C@H]2C)ccc1O [Compound 1, tetrahydrofuroguaiacin B]	1.8	53.1 ± 2	1.6	59.4 ± 2.5		IC50 at 72 h ([2]; rat skeletal myoblasts): 95.2 ± 9.3 µM
COc1cc([C@H]2O[C@@H](c3ccc(O)c(OC)c3)[C@H](C)[C@@H]2C)ccc1O [Compound 2, nectandrin B]	12.1	9 to 9.5	2.4	48.3 ± 1.3		IC50 (P. falciparum (NF54); [7]): 9.5 ± 0.1 µM; IC50 at 72 h ([2]; rat skeletal myoblasts): 115 ± 2.6 µM; IC50 ([3]; Leishmania donovani, Peritoneal macrophage, read-out: activity against L. donovani in the intracellular amastigote assay): > 30 µM; activity against L. donovani in the intracellular amastigote assay [3]: not reproduced; activity against L. donovani promastigotes (in words) [4]: inactive
COc1cc([C@H]2O[C@H](c3cc(OC)c(O)c(OC)c3)[C@@H](C)[C@@H]2C)cc(OC)c1O [Compound 3, fragransin B2]	4.7	36.1 ± 1	3.6	47.5 ± 4.5		
COc1cc([C@H]2O[C@@H](c3cc(OC)c(O)c(OC)c3)[C@@H](C)[C@@H]2C)cc(OC)c1O [Compound 4, fragransin B1]	8.0	17	3.4	40.7 ± 0.4	163 ± 4.5	IC50 (P. falciparum (NF54); [7]): 17.4 ± 2.1 µM
COc1cc(CCC(=O)NCCc2ccc(O)cc2)ccc1O [Compound 5, dihydro-feruloyltyramine]		159		206 ± 66.7	> 318	activity against P. falciparum (in words) (P. falciparum (NF54); NF54): least active; activity against T. b. rhodesiense (in words) [1]: least active
COc1cc(/C=C/C(=O)NCCc2ccc(O)cc2)ccc1O [Compound 6, (E)-N-feruloyltyramine]	3.6	68.4 ± 3.8	2.0	121 ± 36.9		activity against T. b. rhodesiense (in words) [1]: least active; IC50 at 72 h ([2]; rat skeletal myoblasts): 247 ± 3.7 µM
COc1cc(C(=O)/C(C)=C(/C)C(=O)c2ccc(O)c(OC)c2)ccc1O [Compound 7, furoguaiaoxidin]		48.1 ± 10.9		114	> 281	
COc1cc(/C=C/C(=O)NCCCCNC(=O)/C=C/c2ccc(O)c(OC)c2)ccc1O [Compound 8, N,N′-diferuloylputrescine]	4.8	30.6 ± 8.3	8 and 7.8	19	146 ± 18.8	IC50 [1, 9]: 18.9 ± 8.4 µM
CCOC(CNC(=O)/C=C/c1ccc(O)c(OC)c1)c1ccc(O)cc1 (centres unmarked) [Compound 9, 7′-ethoxy-feruloyltyramine]	6.8	30.4 ± 8	2.9	72.7 ± 30.4	208 ± 21.6	
COc1cc(CC(C)C(CO)Cc2ccc(O)c(OC)c2)ccc1O (centres unmarked) [Compound 10, 3,3′-dimethoxy-4,4′-dihydroxylignan-9-ol]	13.7	9 to 9.5	5 and 4.6	28	128 ± 3.9	activity against P. falciparum (in words) (P. falciparum (NF54); NF54): selectively active; IC50 (P. falciparum (NF54); [7]): 9.3 ± 1.3 µM; IC50 [1, 9]: 27.5 ± 8.4 µM
COc1cc2c(OC)c3c(c(-c4ccc5c(c4)OCO5)c2cc1OC)C(=O)OC3 [Justicidin A]						activity against P. falciparum (in words) (P. falciparum): active
COc1cc2cc3c(c(-c4ccc5c(c4)OCO5)c2cc1OC)C(=O)CO3 [Justicidin B]						trypanocidal activity (in words) (trypanosomes): showed trypanocidal activity
CCN(CC)CCCC(C)Nc1ccnc2cc(Cl)ccc12 (centres unmarked) [chloroquine, reference compound]						IC50 (P. falciparum (NF54); Plasmodium falciparum, NF54, read-out: P. falciparum IC50): 0.01 µM
Nc1nc(N)nc(Nc2ccc([As]3SCC(CO)S3)cc2)n1 (centres unmarked) [melarsoprol, reference compound]						IC50 ([1]; Trypanosoma brucei): 0.01 µM
COc1cc([C@@H]2c3cc4c(cc3[C@H](O)[C@H]3COC(=O)[C@H]23)OCO4)cc(OC)c1OC [podophyllotoxin, reference compound]						IC50 at 72 h ([2]; rat skeletal myoblasts): 0.03 µM
